This is an account of results in patent US20180338980A1, “AROMATIC SULFONAMIDE DERIVATIVES” (BAYER PHARMA AKTIENGESELLSCHAFT, priority 2015, published 2018).

Experiment [1] addresses T1, P2X4 (Homo sapiens, UniProt Q99571).
T1 sequence (Q99571 1-388): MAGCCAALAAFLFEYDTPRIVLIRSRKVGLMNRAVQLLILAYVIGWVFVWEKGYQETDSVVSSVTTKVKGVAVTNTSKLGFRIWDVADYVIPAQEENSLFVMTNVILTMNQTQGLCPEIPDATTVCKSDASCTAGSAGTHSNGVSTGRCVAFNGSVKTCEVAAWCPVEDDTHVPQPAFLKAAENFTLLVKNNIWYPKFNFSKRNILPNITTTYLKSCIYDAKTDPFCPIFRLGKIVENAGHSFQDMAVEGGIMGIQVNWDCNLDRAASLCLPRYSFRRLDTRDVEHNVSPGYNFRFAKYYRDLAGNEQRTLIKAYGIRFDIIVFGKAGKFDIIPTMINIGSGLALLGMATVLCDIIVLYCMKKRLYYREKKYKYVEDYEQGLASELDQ
As to the kind of experiment: Assay B: human P2X4 receptor cell line, mitochondrial photina luminescence (agonist Bz-ATP at EC50). The class given is cell-based. On the set-up: host or cells: HEK 293 (recombinant, constitutively expressing; with mitochondrial photina in Assay B). As to conditions: HEK human P2X4 cell line, photina luminescence, agonist Bz-ATP at EC50, average; for Emax: read-out: human P2X4 Assay B avg Efficacy. A digest of the protocol:
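Bz-ATP at its EC50 activates human P2X4 stably expressed in a cell line that also carries the calcium-sensitive photoprotein mitochondrial photina (coelenterazine cofactor). Light emitted on calcium influx is measured straight away in a luminometer. Reduced luminescence indicates antagonism.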

In experiment [2] the target is T1, P2X4. The experiment is described as follows: Assay A: human P2X4 receptor cell line, FLIPR calcium assay (Fluo-8, agonist Bz-ATP at EC80). The class given is cell-based. On the set-up: host or cells: HEK 293 (recombinant, constitutively expressing; with mitochondrial photina in Assay B). As to conditions: HEK human P2X4 cells, Fluo-8 FLIPR; for IC50: Bz-ATP at EC80, average values; for Emax: percentage of maximal inhibition, read-out: human P2X4 Assay A avg Efficacy. The protocol: A fluorescent imaging plate reader (FLEX/FLIPR station; Molecular Devices) was used to monitor intracellular calcium levels using the calcium-chelating dye Fluo-8 (Molecular Probes). […] Cells expressing purinergic receptors human P2X4 (HEK human P2X4: PerkinElmer, Product No.: AX-015-PCF) were plated at a density of 20,000 cells/well in poly-D-lysine-coated 384-well plates approximately 20 hours before beginning the assay. On the day of the assay, the medium was removed and 30 μl of dye buffer (Hank's balanced salt solution, 10 mM HEPES, 1.8 mM CaCl2), 1 mM MgCl2, 2 mM probenecid, 5 mM D-glucose monohydrate, 5 μM Fluo-8, pH=7.4) was added for 30 min at […] and 5% CO2. The antagonist in probenecid buffer (Hank's balanced salt solution, 10 mM HEPES, 1.8 mM CaCl2, 1 mM MgCl2, 2 mM probenecid, 5 mM D-glucose monohydrate, pH=7.4) was added in a volume of 10 μl and allowed to incubate for 30 min at room temperature. The final assay DMSO concentration is 0.5%. The agonist, Bz-ATP, is added in a volume of 10 μl at a concentration representing the EC80 value. The fluorescence was measured for an interval of 120 sec at 2 sec intervals and analyzed based on the increase in peak relative fluorescence units (RFU) compared to the basal fluorescence. Peak fluorescence was used to determine the response to agonist obtained at each concentration of antagonist by the following equation:
% Response=100*(RFU(drug)−RFU(control))/(RFU(DMSO)−RFU(control))
The compounds were tested in triplicates per plate and mean values were plotted in Excel XLFit to determine IC50 values, percentage of maximal inhibition and the Hill coefficients.

One may read the IC50 as the concentration needed to halve the response being measured.

On to `NS(=O)(=O)c1cc(NC(=O)Cc2ccccc2Cl)ccc1Oc1cccc(OC(F)(F)F)c1` [Example 006, 2-(2-Chlorophenyl)-N-{3-sulfamoyl-4-[3-(trifluoromethoxy)phenoxy]phenyl}acetamide], for which, at P2X4 [1], the 50% inhibitory concentration (IC50) was determined as 73 nM and the Emax was 108%. For the same compound, on P2X4 [2], the IC50 was found to be 99 nM and the Emax was 87%.
With `CC(=O)c1cccc(Oc2ccc(NC(=O)Cc3ccccc3Cl)cc2S(N)(=O)=O)c1` [Example 007, N-[4-(3-Acetylphenoxy)-3-sulfamoylphenyl]-2-(2-chlorophenyl)acetamide], at P2X4 [1], the IC50 came to 122 nM and the Emax was found to be 104%. Besides, on P2X4 [2], the half-maximal inhibitory concentration (IC50) worked out at 16 nM and the Emax amounted to 93%.
Regarding `NS(=O)(=O)c1cc(NC(=O)Cc2ccccc2Cl)ccc1Oc1ccc2c(c1)OCO2` [Example 008, N-[4-(1,3-Benzodioxol-5-yloxy)-3-sulfamoylphenyl]-2-(2-chlorophenyl)acetamide], on P2X4 [1], the IC50 came out at 73 nM and the Emax was found to be 91%. Further, on P2X4 [2], the half-maximal inhibitory concentration (IC50) is 44 nM and the Emax is 88%.
The like results for `NS(=O)(=O)c1cc(NC(=O)Cc2ccccc2Cl)ccc1Oc1ccccc1F` [Example 010, 2-(2-Chlorophenyl)-N-[4-(2-fluorophenoxy)-3-sulfamoylphenyl]acetamide] were, in that order, 73 nM, 76%, 27 nM and 90%.
The like results for `NS(=O)(=O)c1cc(NC(=O)Cc2ccccc2Cl)ccc1Oc1cccc(F)c1` [Example 011, 2-(2-Chlorophenyl)-N-[4-(3-fluorophenoxy)-3-sulfamoylphenyl]acetamide] were, in that order, 43 nM, 67%, 41 nM and 85%.
The like results for `CS(=O)(=O)c1cccc(Oc2ccc(NC(=O)Cc3ccccc3Cl)cc2S(N)(=O)=O)c1` [Example 016, 2-(2-Chlorophenyl)-N-{4-[3-(methylsulfonyl)phenoxy]-3-sulfamoylphenyl}acetamide] were, in that order, 112 nM, 72%, 96 nM and 81%.
Take `Cc1cccc(Oc2ccc(NC(=O)Cc3ccccc3Cl)cc2S(N)(=O)=O)c1` [Example 018, 2-(2-Chlorophenyl)-N-[4-(3-methylphenoxy)-3-sulfamoylphenyl]acetamide]: the values for the concentration for half-maximal inhibition (IC50) on P2X4 [1] and on P2X4 [2] were 47 nM and 9 nM, respectively. Further, the Emax on P2X4 [1] worked out at 70%; on P2X4 [2], 93%.
Regarding `NS(=O)(=O)c1cc(NC(=O)Cc2ccccc2Cl)ccc1Oc1cccc(-n2cnnc2)c1` [Example 020, 2-(2-Chlorophenyl)-N-{3-sulfamoyl-4-[3-(4H-1,2,4-triazol-4-yl)phenoxy]phenyl}acetamide], the figures for the Emax on P2X4 [1] and at P2X4 [2] were 96% and 90%, respectively.
In the case of `COc1cccc(Oc2ccc(NC(=O)Cc3ccccc3Cl)cc2S(N)(=O)=O)c1` [Example 022, 2-(2-Chlorophenyl)-N-[4-(3-methoxyphenoxy)-3-sulfamoylphenyl]acetamide], the Emax came to 54% on P2X4 [1] and 87% at P2X4 [2].
Turning to `NS(=O)(=O)c1cc(NC(=O)Cc2ccccc2Cl)ccc1Oc1cccc(OC(F)F)c1` [Example 024, 2-(2-Chlorophenyl)-N-{4-[3-(difluoromethoxy)phenoxy]-3-sulfamoylphenyl}acetamide], on P2X4 [1], the IC50 was found to be 32 nM and the Emax was determined as 57%. Also, on P2X4 [2], the IC50 worked out at 114 nM and the Emax was found to be 82%.
Take `NS(=O)(=O)c1cc(NC(=O)Cc2ccccc2Cl)ccc1Oc1cccc(N2CCOCC2)c1` [Example 026, 2-(2-Chlorophenyl)-N-{4-[3-(morpholin-4-yl)phenoxy]-3-sulfamoylphenyl}acetamide]: at P2X4 [1], the 50% inhibitory concentration (IC50) amounted to 82 nM and the Emax came to 71%. Further, at P2X4 [2], the IC50 is 21 nM and the Emax is 95%.
In the case of `NS(=O)(=O)c1cc(NC(=O)Cc2ccccc2Cl)ccc1Oc1cccnc1` [Example 028, 2-(2-Chlorophenyl)-N-[4-(pyridin-3-yloxy)-3-sulfamoylphenyl]acetamide], the Emax worked out at 79% on P2X4 [1] and 75% on P2X4 [2].
For the compound `NS(=O)(=O)c1cc(NC(=O)Cc2ccccc2Cl)ccc1Oc1cccc(C(F)F)c1` [Example 031, 2-(2-Chlorophenyl)-N-{4-[3-(difluoromethyl)phenoxy]-3-sulfamoylphenyl}acetamide], at P2X4 [1], the IC50 turned out to be 122 nM and the Emax stood at 71%. At P2X4 [2], the IC50 was determined as 24 nM and the Emax was found to be 76%.
The corresponding values for `COc1ccccc1Oc1ccc(NC(=O)Cc2ccccc2Cl)cc1S(N)(=O)=O` [Example 032, 2-(2-Chlorophenyl)-N-[4-(2-methoxyphenoxy)-3-sulfamoylphenyl]acetamide] are 57 nM, 82%, 14 nM and 100%.
For the compound `NS(=O)(=O)c1cc(NC(=O)Cc2ccccc2Cl)ccc1Oc1cccc(C(=O)NC2CC2)c1` [Example 037, 3-(4-{[(2-Chlorophenyl)acetyl]amino}-2-sulfamoylphenoxy)-N-cyclopropylbenzamide], on P2X4 [1], the IC50 came to 188 nM and the Emax is 56%. Moreover, on P2X4 [2], the IC50 was determined as 63 nM and the Emax was 70%.
The like results for `NS(=O)(=O)c1cc(NC(=O)Cc2ccccc2Cl)ccc1Oc1cc(Cl)ccn1` [Example 039, 2-(2-chlorophenyl)-N-{4-[(4-chloropyridin-2-yl)oxy]-3-sulfamoylphenyl}acetamide] were, in that order, 140 nM, 65%, 7 nM and 89%.
The corresponding values for `NS(=O)(=O)c1cc(NC(=O)Cc2ccccc2Cl)ccc1Oc1ccc(N2CCCC2=O)cc1` [Example 043, 2-(2-Chlorophenyl)-N-{4-[4-(2-oxopyrrolidin-1-yl)phenoxy]-3-sulfamoylphenyl}acetamide] are 671 nM, 68%, 515 nM and 85%.
On to `N#Cc1cc(Oc2ccc(NC(=O)Cc3ccccc3Cl)cc2S(N)(=O)=O)ccc1F` [Example 047, 2-(2-Chlorophenyl)-N-[4-(3-cyano-4-fluorophenoxy)-3-sulfamoylphenyl]acetamide], for which, at P2X4 [1], the IC50 was determined as 862 nM and the Emax was found to be 57%. Also, at P2X4 [2], the IC50 was 7 nM and the Emax was found to be 69%.
The corresponding values for `NS(=O)(=O)c1cc(NC(=O)Cc2ccccc2Cl)ccc1Oc1cccc(N2CCCC2=O)c1` [Example 050, 2-(2-Chlorophenyl)-N-{4-[3-(2-oxopyrrolidin-1-yl)phenoxy]-3-sulfamoylphenyl}acetamide] are 112 nM, 87%, 5 nM and 94%.
Take `NS(=O)(=O)c1cc(NC(=O)Cc2ccccc2Cl)ccc1Oc1cccc(N2CCOC2=O)c1` [Example 051, 2-(2-Chlorophenyl)-N-{4-[3-(2-oxo-1,3-oxazolidin-3-yl)phenoxy]-3-sulfamoylphenyl}acetamide]: on P2X4 [1], the concentration for half-maximal inhibition (IC50) came to 124 nM and the Emax is 83%. Besides, on P2X4 [2], the IC50 came to 20 nM and the Emax turned out to be 87%.
`NS(=O)(=O)c1cc(NC(=O)Cc2ccccc2Cl)ccc1Oc1cccc(C(=O)N2CCOCC2)c1` [Example 052, 2-(2-Chlorophenyl)-N-{4-[3-(morpholin-4-ylcarbonyl)phenoxy]-3-sulfamoylphenyl}acetamide]: the Emax was 66% on P2X4 [1] and 85% at P2X4 [2].
